{"source": "patent US10024865B2", "about": "“Ubiquitination assay” (ITI Scotland Limited, priority 2010, dated 2018)", "key": {"SCF^Skp2/Cks1": {"test_system": "T1, SCF^Skp2/Cks1", "T1 construct": "6His-Skp2-(isoform 1, hu,FL), GST-Skp1-; (hu,FL), 6His-Cul1-(hu,FL), UT-Rbx1-; 6His-Cks1-(hu,FL); 6His (N); GST (N); made in house", "T1 sequence (Q13309 whole entry, canonical isoform)": "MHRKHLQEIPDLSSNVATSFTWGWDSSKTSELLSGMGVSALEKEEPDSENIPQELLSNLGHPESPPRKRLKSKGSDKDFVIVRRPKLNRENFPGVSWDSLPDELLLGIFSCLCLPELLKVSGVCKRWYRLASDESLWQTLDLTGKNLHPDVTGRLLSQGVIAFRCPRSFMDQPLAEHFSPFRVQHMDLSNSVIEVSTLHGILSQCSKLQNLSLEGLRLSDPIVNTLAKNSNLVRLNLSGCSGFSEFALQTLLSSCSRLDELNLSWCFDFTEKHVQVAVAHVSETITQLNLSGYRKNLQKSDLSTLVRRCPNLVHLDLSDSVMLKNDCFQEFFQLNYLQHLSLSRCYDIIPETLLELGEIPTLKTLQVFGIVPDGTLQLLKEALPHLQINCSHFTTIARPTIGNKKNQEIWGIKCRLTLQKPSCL", "T1 sequence (P63208 1-160 isoform P63208-2, further chain)": "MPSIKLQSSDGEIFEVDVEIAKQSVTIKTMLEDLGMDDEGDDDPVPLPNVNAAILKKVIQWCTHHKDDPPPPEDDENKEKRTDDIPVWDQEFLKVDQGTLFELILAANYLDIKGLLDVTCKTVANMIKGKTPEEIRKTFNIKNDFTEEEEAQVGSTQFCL", "T1 sequence (Q13616 whole entry, further chain, canonical isoform)": "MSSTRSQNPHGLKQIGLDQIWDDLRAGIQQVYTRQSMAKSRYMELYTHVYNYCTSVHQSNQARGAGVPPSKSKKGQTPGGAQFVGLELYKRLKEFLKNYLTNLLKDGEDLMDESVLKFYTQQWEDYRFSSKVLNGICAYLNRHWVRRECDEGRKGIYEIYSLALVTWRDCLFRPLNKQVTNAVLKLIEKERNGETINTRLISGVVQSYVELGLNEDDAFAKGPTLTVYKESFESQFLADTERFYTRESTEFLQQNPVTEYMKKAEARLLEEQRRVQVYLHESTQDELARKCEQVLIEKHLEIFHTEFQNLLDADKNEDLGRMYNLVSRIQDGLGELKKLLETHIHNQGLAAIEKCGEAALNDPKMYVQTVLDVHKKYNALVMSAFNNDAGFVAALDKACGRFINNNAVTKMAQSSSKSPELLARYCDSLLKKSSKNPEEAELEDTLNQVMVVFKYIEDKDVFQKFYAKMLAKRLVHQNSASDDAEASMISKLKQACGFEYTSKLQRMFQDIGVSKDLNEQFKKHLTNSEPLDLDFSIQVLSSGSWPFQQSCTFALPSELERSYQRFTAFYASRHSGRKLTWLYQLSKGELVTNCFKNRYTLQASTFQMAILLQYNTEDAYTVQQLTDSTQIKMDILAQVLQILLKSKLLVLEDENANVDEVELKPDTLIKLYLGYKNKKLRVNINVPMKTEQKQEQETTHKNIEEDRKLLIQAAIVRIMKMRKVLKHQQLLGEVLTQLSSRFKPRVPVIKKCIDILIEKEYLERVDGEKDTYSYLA", "T1 sequence (P62877 whole entry, further chain, canonical isoform)": "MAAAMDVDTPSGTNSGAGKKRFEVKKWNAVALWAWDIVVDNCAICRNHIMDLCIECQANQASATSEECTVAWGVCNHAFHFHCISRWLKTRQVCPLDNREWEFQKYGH", "T1 sequence (P61024 whole entry, further chain, canonical isoform)": "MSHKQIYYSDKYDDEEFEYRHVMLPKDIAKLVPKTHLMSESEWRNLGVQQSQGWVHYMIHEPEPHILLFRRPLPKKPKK", "assay": "'Live' SCF^Skp2/Cks1 assay (E3 assay, p27 ubiquitination), ECL", "format": "biochemical, human", "conditions": "for follow up IC50 (in words): titration from 300 μM to 10 nM", "description": "FIG. 23 (a): ‘Live’ SCF^Skp2/Cks1 Assay—ECL ubiquitin titration. Used 60 minute incubation; 25 nM c-Myc p27; anti c-Myc capture for p27 (Millipore 05-274, 1/500); 5 nM E1; 1 μM E2 (HA); 25 nM E3/Cks1; 5 to 0.08 μM Ub; 1000 to 15 μM ATP; streptavidin sulfo tag (MSD, R32AD-1, 1 μg/ml). Hyperbolic increase in signal with [Ub]. Optimum signal after 2 μM ubiquitin. Largely […] of ATP concentration. […] Final assay concentration is set at 2 μM.\nFIG. 23 (b): ‘Live’ SCF^Skp2/Cks1 Assay—ECL ATP titration. Used 60 minute incubation; 25 nM c-Myc p27; anti c-Myc capture for p27 (Millipore 05-274, 1/500); 5 nM E1; 1 μM E2 (HA); 25 nM E3/Cks1; 2 μM Ub; 1000 to 7 μM ATP; streptavidin sulfo tag (MSD, R32AD-1, 1 μg/ml). Initial experiments indicated a high signal which was independent of ATP concentration (lowest [ATP] of 21 μM)—indicative of tight binding. […] Km estimated at 4 μM. Final assay concentration set at 100 μM.\nFIG. 30 (a): ‘Live’ SCF^Skp2/Cks1 Assay—ECL Inhibitor study—PYR-41 (E1 inhibitor).\nFIG. 32: ‘Live’ SCF^Skp2/Cks1 Assay—ECL R140 Kinase inhibitor panel. Used 60 minute incubation; 25 nM c-Myc p27; anti-c-Myc capture for p27 (Millipore 05-274, 1/500); 5 nM E1; 1 μM E2 (HA); 25 nM E3 tetramer; 25 nM Cks1; 2 μM Ub; 100 μM ATP; streptavidin sulfo tag (MSD, R32AD-1, 1 μg/ml).\nFIG. 34: ‘Live’ SCF^Skp2/Cks1 Assay—ECL follow up IC50s. Used 60 minute incubation; 25 nM c-Myc p27; anti c-Myc capture for p27 (Millipore 05-274, 1/500); 5 nM E1; 1 μM E2 (HA); 25 nM E3 tetramer; 25 nM Cks1; 2 μM Ub; 100 μM ATP; streptavidin sulfo tag (MSD, R32AD-1, 1 μg/ml). Titration of PYR41 (Calbiochem 662105) from 300 μM to 10 nM (control). Titration of Rottlerin, EGCG, AG538 and K252c from 300 μM to 10 nM.\n(§1) Each of the assays in the p27 ubiquitination cascade (E1, E2 and E3) were tested against the E1 inhibitor PYR-41. No pre-charging of either the E1 or E2 was carried out prior to the introduction of the compound although in the E3 assay, p27 phosphorylation by CDK2/Cyclin E was carried out in the absence of inhibitor.\nIn order to test the feasibility of screening the E3 assay against a range of inhibitors, the assay was tested against a panel of 41 inhibitors (40 known kinase inhibitors and PYR-41) (FIG. 31). […] Using the same assay conditions, the E3 assay was tested against these inhibitors (FIG. 33)."}, "Ube1/UbCH3": {"biological_target": "T2, Ube1/UbCH3 (Homo sapiens, UniProt P22314)", "T2 construct": "6His-UBE1-(hu,FL) (E1); made in house", "T2 sequence (P22314 1-1058)": "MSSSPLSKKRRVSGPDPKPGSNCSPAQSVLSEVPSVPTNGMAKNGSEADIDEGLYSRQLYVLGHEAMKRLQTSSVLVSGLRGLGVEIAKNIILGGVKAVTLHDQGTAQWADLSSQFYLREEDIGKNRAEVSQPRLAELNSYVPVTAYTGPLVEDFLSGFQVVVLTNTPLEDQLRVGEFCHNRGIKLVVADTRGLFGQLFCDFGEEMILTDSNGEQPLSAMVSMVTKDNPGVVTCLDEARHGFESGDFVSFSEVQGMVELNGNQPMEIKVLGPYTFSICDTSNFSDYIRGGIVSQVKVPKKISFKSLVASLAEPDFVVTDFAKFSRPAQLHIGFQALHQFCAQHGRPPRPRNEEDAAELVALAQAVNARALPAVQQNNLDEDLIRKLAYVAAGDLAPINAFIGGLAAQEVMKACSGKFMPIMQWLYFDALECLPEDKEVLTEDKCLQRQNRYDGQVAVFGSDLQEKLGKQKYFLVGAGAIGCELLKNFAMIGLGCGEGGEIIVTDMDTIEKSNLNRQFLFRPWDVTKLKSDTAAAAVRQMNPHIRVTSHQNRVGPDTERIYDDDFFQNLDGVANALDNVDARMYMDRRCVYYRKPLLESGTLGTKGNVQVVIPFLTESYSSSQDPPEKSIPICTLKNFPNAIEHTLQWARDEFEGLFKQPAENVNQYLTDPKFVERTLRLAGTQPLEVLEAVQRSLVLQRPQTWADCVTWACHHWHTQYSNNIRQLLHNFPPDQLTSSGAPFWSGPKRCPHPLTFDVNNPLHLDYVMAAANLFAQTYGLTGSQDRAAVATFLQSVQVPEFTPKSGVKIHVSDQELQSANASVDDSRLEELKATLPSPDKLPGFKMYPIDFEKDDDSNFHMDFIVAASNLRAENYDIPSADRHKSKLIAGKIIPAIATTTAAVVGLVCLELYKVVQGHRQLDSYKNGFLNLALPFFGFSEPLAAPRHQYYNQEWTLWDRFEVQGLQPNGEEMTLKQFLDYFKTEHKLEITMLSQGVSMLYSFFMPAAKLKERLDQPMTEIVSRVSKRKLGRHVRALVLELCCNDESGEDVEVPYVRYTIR", "assay": "E1+E2 (Ube1+UbCH3) assay, HTRF", "format": "biochemical", "conditions": "100 nM E1, 1 μM E2, 400 nM Ub", "description": "(§2) FIG. 18: Ube1 Inhibitor study PYR41 in E1 and E1+E2 assay—HTRF. Inhibitor study: 30 minutes pre-incubation with PYR-41. Assays were immediately diluted followed by addition of 2 mM ATP.\nBiogenNova quote IC50 value as ˜5 μM.\n(§3) Using conditions identified previously, an IC50 determination for Pyr-41 using the E1 and E1/E2 assays was performed. […] This may be a reflection of the higher enzyme concentrations used in the HTRF assay step (FIG. 18)."}, "Ube1 [1]": {"biological_target": "T3, Ube1 (Homo sapiens, UniProt P22314)", "T3 construct": "6His-UBE1-(hu,FL) (E1); made in house", "T3 sequence (P22314 1-1058)": "T2 sequence (P22314 1-1058)", "assay": "Ube1 (E1) assay, ECL", "format": "biochemical", "conditions": "50 nM E1, 2 μM Ub", "description": "FIG. 11: Ube1 inhibitor study PYR41— ECL. Inhibitor study. Titration of PYR41 (Calbiochem 662105) from 300 μM to 10 nM. Used anti-His capture for E1 (Millipore, 16-255, 1/1000 dil); 50 nM E1; 2 μM Ub; 500 μM ATP; 30-minute pre-incubation with cpd.; 30 minute reaction time.\n(§4) FIG. 30 (b): E1/E2 Assay—ECL Inhibitor study—PYR-41. Used 60 minute incubation; 2 μM Ub; 100 μM ATP. For E1 assay (Anti-His capture) 50 nM E1. For E2 assay (Anti HA-capture) 5 nM E1; 50 nM E2. Used streptavidin sulfo tag (MSD R32AD-1, 1 μg/ml); titration of PYR41 (Calbiochem 662105) from 300 μM to 10 nM.\nFor the IC50 determination of Pyr-41, the data shown is that from a 30 minute pre-incubation and a 30 minute assay. The assay was performed in a separate plate and then transferred. For information purposes, another set of assays were performed within the capture/detect plate and stopped immediately by washing off the assay solution, or washed after 60 min. It was interesting to note that even with the wash at time 0 an IC50 for the compound that was in line with the data shown could still be determined.\nas §1"}, "Ube1 [2]": {"biological_target": "T3, Ube1", "assay": "E1 assay, HTRF", "format": "biochemical", "conditions": "1 μM E1, 2 μM Ub, Anti-6His-K, 30 minutes pre-incubation", "description": "as §2, §3"}, "E1": {"biological_target": "T4, E1 (Homo sapiens, UniProt P22314)", "T4 construct": "literature BiogenNova / Calbiochem (quoted value)", "T4 sequence (P22314 1-1058)": "T2 sequence (P22314 1-1058)", "conditions": "cited from earlier work"}, "UbCH3": {"biological_target": "T5, UbCH3 (Homo sapiens, UniProt P49427)", "T5 construct": "HA,6His-UbcH3-(hu,FL) (E2); made in house", "T5 sequence (P49427 whole entry, one chain of several)": "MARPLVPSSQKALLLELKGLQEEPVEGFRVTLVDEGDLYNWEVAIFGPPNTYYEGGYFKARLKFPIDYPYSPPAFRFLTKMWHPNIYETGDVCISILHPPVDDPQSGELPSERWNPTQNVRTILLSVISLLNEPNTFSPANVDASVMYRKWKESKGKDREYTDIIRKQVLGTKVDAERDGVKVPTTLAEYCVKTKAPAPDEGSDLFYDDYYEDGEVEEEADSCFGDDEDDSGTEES", "assay": "UbCH3 (E2) assay, ECL (anti-HA capture)", "format": "biochemical", "conditions": "5 nM E1, 50 nM E2, 2 μM Ub, 100 μM ATP, 60 minute incubation", "description": "as §4, §1"}, "[3]": {"conditions": "ECL E3 assay, kinase inhibitor panel screen"}}, "note": "Where “and” joins values, the source holds several entries; their conditions need not be identical. Equal entries are not always repeated. Entries after “also recorded” stand apart in the source; their conditions may differ.", "data": [{"molecule": "N#C/C(=C\\c1ccc(O)c(O)c1)C(=O)c1ccc(O)c(O)c1", "note": "[AG538]", "values": [{"measurement": "inhibition in kinase inhibitor panel (in words)", "setting": "SCF^Skp2/Cks1; [3]", "value": "show up as inhibitors"}]}, {"molecule": "Nc1ncnc2c1ncn2[C@@H]1O[C@H](COP(=O)(O)OP(=O)(O)OP(=O)(O)O)[C@@H](O)[C@H]1O", "note": "[ATP, Adenosine-5′-Triphosphate]", "values": [{"measurement": "Km", "setting": "SCF^Skp2/Cks1; ECL E3 assay, ATP titration 1000 to 7 μM, 2 μM Ub, read-out: apparent Km for ATP", "value": "~4", "unit": "µM"}]}, {"molecule": "O=C(O[C@@H]1Cc2c(O)cc(O)cc2O[C@@H]1c1cc(O)c(O)c(O)c1)c1cc(O)c(O)c(O)c1", "note": "[EGCG]", "values": [{"measurement": "inhibition in kinase inhibitor panel (in words)", "setting": "SCF^Skp2/Cks1; [3]", "value": "show up as inhibitors; also recorded: moderate amounts of inhibition"}, {"measurement": "follow up IC50 (in words)", "setting": "SCF^Skp2/Cks1; ECL E3 assay", "value": "in the μM range"}]}, {"molecule": "O=C1NCc2c1c1c3ccccc3[nH]c1c1[nH]c3ccccc3c21", "note": "[K252c]", "values": [{"measurement": "inhibition in kinase inhibitor panel (in words)", "setting": "SCF^Skp2/Cks1; [3]", "value": "show up as inhibitors; also recorded: moderate amounts of inhibition"}, {"measurement": "follow up IC50 (in words)", "setting": "SCF^Skp2/Cks1; ECL E3 assay", "value": "false positive result"}]}, {"molecule": "CCOC(=O)c1ccc(N2NC(=O)/C(=C/c3ccc([N+](=O)[O-])o3)C2=O)cc1", "note": "[PYR-41]", "values": [{"measurement": "IC50", "setting": "Ube1/UbCH3; Anti-6His-K detection", "value": 16, "unit": "µM"}, {"measurement": "IC50", "setting": "Ube1/UbCH3; Anti-FLAG-K detection", "value": 20, "unit": "µM"}, {"measurement": "IC50", "setting": "Ube1 [1]; 500 μM ATP, 30 minute pre-incubation with cpd, 30 minute reaction time", "value": 1.3, "unit": "µM"}, {"measurement": "IC50", "setting": "Ube1 [1]; anti-His capture, 100 μM ATP, 60 minute incubation", "value": 7.8, "unit": "µM"}, {"measurement": "IC50", "setting": "Ube1 [2]", "value": 43, "unit": "µM"}, {"measurement": "reported values for the inhibitor (in words)", "setting": "E1; literature", "value": "low micromolar range"}, {"measurement": "IC50", "setting": "E1; quoted by BiogenNova / Calbiochem, vs. E1", "value": "~5", "unit": "µM"}, {"measurement": "IC50", "setting": "UbCH3", "value": 3.2, "unit": "µM"}, {"measurement": "inhibition in panel of 41 inhibitors", "setting": "SCF^Skp2/Cks1; [3]", "value": "> 80", "unit": "%"}, {"measurement": "IC50", "setting": "SCF^Skp2/Cks1; ECL, 25 nM c-Myc p27, 5 nM E1, 1 μM E2, 25 nM E3 tetramer, 25 nM Cks1, 2 μM Ub, 100 μM ATP, 60 minute incubation", "value": "55 µM and 84 µM"}]}, {"molecule": "CC(=O)c1c(O)c(C)c(O)c(Cc2c(O)c3c(c(C(=O)/C=C/c4ccccc4)c2O)OC(C)(C)C=C3)c1O", "note": "[Rottlerin]", "values": [{"measurement": "inhibition in kinase inhibitor panel (in words)", "setting": "SCF^Skp2/Cks1; [3]", "value": "show up as inhibitors; also recorded: moderate amounts of inhibition"}, {"measurement": "follow up IC50 (in words)", "setting": "SCF^Skp2/Cks1; ECL E3 assay", "value": "in the μM range"}]}]}
